Data: patent US10336732B2, “1-heterocyclyl isochromanyl compounds and analogs for treating CNS disorders” (Sunovion Pharmaceuticals Inc., priority 2015, dated 2019)

What follows are molecules tested on mice (assay: Neuropharmacological assay (SmartCube), behavioral signature of compound-treated mice). Details: i.p. 15 min before behavioral test, most efficacious dose(s) of 3 doses.
Type: in vivo
Text: Neurosci. […] As reported in Roberds, because psychiatric diseases generally result from disorders of cell-cell communication or circuitry, intact systems are useful in detecting improvement in disease-relevant endpoints. These endpoints are typically behavioral in nature, often requiring human observation and interpretation. To facilitate testing of multiple compounds for behavioral effects relevant to psychiatric disease, PsychoGenics, Inc. (Tarrytown, N.Y., “PGI”) developed SmartCube™, an automated system in which behaviors of compound-treated mice are captured by digital video and analyzed with computer algorithms. […] PGI Analytical Systems uses data from SmartCube™ to compare the behavioral signature of a test compound to a database of behavioral signatures obtained using a large set of diverse reference compounds. (The composition of the database as well as validation of the method is further described in Roberds). In this way, the neuropharmacological effects of a test compound can be predicted by similarity to major classes of compounds, such as antipsychotics, anxiolytics and antidepressants.
The SmartCube™ system produces an activity signature indicating the probability that the activity of the test compound at the administered dose matches a given class of neuropharmacological agents. (See, e.g., Roberds, FIGS. 2 and 3). The test compound is simultaneously compared against multiple classes of agents; thus, a separate probability is generated for each behavioral effect measured (e.g., anxiolytic activity, analgesic activity, etc.). In Table 4, these probabilities are reported for each behavioral effect measured as follows:
Provided compounds were dissolved in a mixture of Pharmasolve™ (N-methyl-2-pyrrolidone), polyethylene glycol and propylene glycol, and were injected i.p. 15 min. before the behavioral test. For each compound, injections were administered at 3 different doses. For each behavioral effect measured, results for the most efficacious dose(s) are presented.

Row | SMILES | AD: ADHD (probability that behavioral signature matches class) | AG: analgesic (probability that behavioral signature matches class) | AX: anxiolytic (probability that behavioral signature matches class) | CE: cognitive enhancer (probability that behavioral signature matches class) | DP: anti-depressant (probability that behavioral signature matches class) | HA: hallucinogen (probability that behavioral signature matches class) | MS: mood stabilizer (probability that behavioral signature matches class) | PS: anti-psychotic (probability that behavioral signature matches class) | SD: sedative hypnotic (probability that behavioral signature matches class) | UN: uncharacterized CNS activity (probability that behavioral signature matches class)
1 | Fc1cccc2c1CCO[C@H]2[C@@H]1CCCN1 [Compound I-13, (S)-2-((R)-5-fluoroisochroman-1-yl)pyrrolidine] | + (LOQ ≤ + <5%) | ++ (5% ≤ ++ <25%) | ++ (5% ≤ ++ <25%) | ++ (5% ≤ ++ <25%) | +++ (25% ≤ +++ <50%) | + (LOQ ≤ + <5%) | ++ (5% ≤ ++ <25%) | ++++ (50% ≤ ++++) | + (LOQ ≤ + <5%) | ++ (5% ≤ ++ <25%)
2 | Fc1cccc2c1CCO[C@@H]2[C@@H]1CCCN1 [Compound I-14, (S)-2-((S)-5-fluoroisochroman-1-yl)pyrrolidine] | + (LOQ ≤ + <5%) | ++ (5% ≤ ++ <25%) | ++ (5% ≤ ++ <25%) | ++ (5% ≤ ++ <25%) | +++ (25% ≤ +++ <50%) | + (LOQ ≤ + <5%) | ++ (5% ≤ ++ <25%) | +++ (25% ≤ +++ <50%) | + (LOQ ≤ + <5%) | + (LOQ ≤ + <5%)
3 | Fc1cccc2c1CCO[C@H]2[C@H]1CCCN1 [Compound I-15, (R)-2-((R)-5-fluoroisochroman-1-yl)pyrrolidine] | + (LOQ ≤ + <5%) | ++ (5% ≤ ++ <25%) | +++ (25% ≤ +++ <50%) | ++ (5% ≤ ++ <25%) | ++ (5% ≤ ++ <25%) | + (LOQ ≤ + <5%) | + (LOQ ≤ + <5%) | ++ (5% ≤ ++ <25%) | + (LOQ ≤ + <5%) | + (LOQ ≤ + <5%)
4 | Fc1cccc2c1CCO[C@@H]2[C@H]1CCCN1 [Compound I-16, (R)-2-((S)-5-fluoroisochroman-1-yl)pyrrolidine] | + (LOQ ≤ + <5%) | + (LOQ ≤ + <5%) | ++ (5% ≤ ++ <25%) | ++ (5% ≤ ++ <25%) | ++ (5% ≤ ++ <25%) | + (LOQ ≤ + <5%) | ++ (5% ≤ ++ <25%) | +++ (25% ≤ +++ <50%) | + (LOQ ≤ + <5%) | +++ (25% ≤ +++ <50%)
5 | c1ccc2c(c1)CCO[C@@H]2[C@@H]1CCCN1 [Compound I-17, (S)-2-((S)-isochroman-1-yl)pyrrolidine] | + (LOQ ≤ + <5%) | + (LOQ ≤ + <5%) | ++ (5% ≤ ++ <25%) | ++ (5% ≤ ++ <25%) | +++ (25% ≤ +++ <50%) | + (LOQ ≤ + <5%) | + (LOQ ≤ + <5%) | ++ (5% ≤ ++ <25%) | + (LOQ ≤ + <5%) | + (LOQ ≤ + <5%)
6 | c1ccc2c(c1)CCO[C@H]2[C@@H]1CCCN1 [Compound I-18, (S)-2-((R)-isochroman-1-yl)pyrrolidine] | + (LOQ ≤ + <5%) | ++ (5% ≤ ++ <25%) | +++ (25% ≤ +++ <50%) | ++ (5% ≤ ++ <25%) | ++ (5% ≤ ++ <25%) | + (LOQ ≤ + <5%) | ++ (5% ≤ ++ <25%) | +++ (25% ≤ +++ <50%) | ++ (5% ≤ ++ <25%) | ++ (5% ≤ ++ <25%)
7 | c1ccc2c(c1)CCO[C@H]2[C@H]1CCCN1 [Compound I-19, (R)-2-((R)-isochroman-1-yl)pyrrolidine] | + (LOQ ≤ + <5%) | + (LOQ ≤ + <5%) | ++ (5% ≤ ++ <25%) | ++ (5% ≤ ++ <25%) | + (LOQ ≤ + <5%) | + (LOQ ≤ + <5%) | + (LOQ ≤ + <5%) | ++++ (50% ≤ ++++) | + (LOQ ≤ + <5%) | ++++ (50% ≤ ++++)

Same assay, conditions: i.p. 15 min before behavioral test, most efficacious dose(s) of 3 doses

Row | SMILES | XG: anxiogenic (probability that behavioral signature matches class)
8 | Fc1cccc2c1CCO[C@H]2[C@@H]1CCCN1 [Compound I-13, (S)-2-((R)-5-fluoroisochroman-1-yl)pyrrolidine] | + (LOQ ≤ + <5%)
9 | Fc1cccc2c1CCO[C@@H]2[C@@H]1CCCN1 [Compound I-14, (S)-2-((S)-5-fluoroisochroman-1-yl)pyrrolidine] | + (LOQ ≤ + <5%)
10 | Fc1cccc2c1CCO[C@H]2[C@H]1CCCN1 [Compound I-15, (R)-2-((R)-5-fluoroisochroman-1-yl)pyrrolidine] | + (LOQ ≤ + <5%)
11 | Fc1cccc2c1CCO[C@@H]2[C@H]1CCCN1 [Compound I-16, (R)-2-((S)-5-fluoroisochroman-1-yl)pyrrolidine] | + (LOQ ≤ + <5%)
12 | c1ccc2c(c1)CCO[C@@H]2[C@@H]1CCCN1 [Compound I-17, (S)-2-((S)-isochroman-1-yl)pyrrolidine] | + (LOQ ≤ + <5%)
13 | c1ccc2c(c1)CCO[C@H]2[C@@H]1CCCN1 [Compound I-18, (S)-2-((R)-isochroman-1-yl)pyrrolidine] | + (LOQ ≤ + <5%)
14 | c1ccc2c(c1)CCO[C@H]2[C@H]1CCCN1 [Compound I-19, (R)-2-((R)-isochroman-1-yl)pyrrolidine] | + (LOQ ≤ + <5%)
